Laboratory results reported in patent US20150290354A1, “NONWOVEN FIBER MATERIALS” (NORTH CAROLINA STATE UNIVERSITY, priority 2012, published 2015).
Entries after “also recorded” stand apart in the source; their conditions may differ.

Experiments:
Assay in all cases: Minimum inhibitory / bactericidal concentration (MIC/MBC) test, 96-well serial dilution
Escherichia coli J53 = assay type: cell-based; details: n=6
Method: (§1) A minimum inhibitory concentration (MIC) test was conducted to measure the efficiency of certain silver-based antimicrobials against each bacterial isolate. A sterile round-bottom plastic 96-well plate containing […] of serially 1:2 diluted concentrations of antimicrobial solutions was inoculated with […] of 5-8×10^5 CFU/ml of each bacterial isolate. Each antimicrobial sample was tested at 15 serially diluted concentrations starting at their original highest concentration (0.015-1000 μg/ml).
(§2) After 24 h of incubation, 10 μl of the suspension from all of the clear wells (showing no bacterial growth) was dropped onto a MH agar plate and incubated for 24 h.
(§3) The mass concentration of these nanoparticles dispersed in water was 1.0 mg/mL The Silvadur ET solution containing 2.6-3.1 wt % silver ions was used at its original concentration (1.0 mg/mL). Silver nitrate was also dissolved in distilled water to create a 1 mg/mL solution. A gram negative (Escherichia coli J53) and gram positive (staphylococcus aureus—a common bacteria to cause skin infections) bacteria were employed for the experiment. Cation-adjusted Mueller-Hinton (MH) broth and agar (Difco Laboratories, Detroit, Mich., USA) were utilized to prepare bacterial cultivating medium. Isolated bacterial colonies were grown overnight in an incubator (37° C., 5% CO2) from frozen samples on an agar plate. For Agresistant bacteria (E. coli J53 [pMG101]), […] ampicillin sodium salt (Fisher Scientific, USA) was also added to the agar plates. The bacterial colony was suspended in phosphate buffered saline (PBS) to obtain 0.5 McFarland (10^5 CFU/ml). Microplates were incubated at 37° C. and shaken at 200 rpm for 24 hours. To control the accuracy of bacterial seeding density, bacteria were diluted in PBS at 103, 104, 105, and 106 and cultured overnight.
(§4) A gram negative (Escherichia coli J53) and gram positive (staphylococcusaureus, a common bacteria that causes skin infections) bacteria were employed for the experiment. Cation-adjusted Mueller-Hinton (MH) broth and agar (Difco Laboratories, Detroit, Mich., USA) were used to prepare bacterial cultivating medium. Isolated bacterial colonies were grown overnight in an incubator (37° C., 5% CO2) from frozen samples on an agar plate. For Ag-resistant bacteria (E. coli J53 [pMG101]) […] ampicillin sodium salt (Fisher Scientific, USA) was also added to the agar plates. The bacterial colony was suspended in phosphate buffered saline (PBS) to get 0.5 McFarland (10^5 CFU/ml). Microplates were incubated at 37° C. and shaken at 200 rpm for 24 h. To control the accuracy of bacterial seeding density, bacteria were diluted in PBS at 10^3, 10^4, 10^5, and 10^6 and plated overnight.
as §1, with “The minimum” for “A minimum”, “of silver based” for “of certain silver-based”, “μg/ml). […] After 24 h of incubation, 10 μl of the suspension from all of the clear wells (showing no bacterial growth) was dropped onto a MH agar plate and incubated for 24 h.” for “μg/ml).”

Staphylococcus aureus = assay type: cell-based; details: n=6
Method: as §1, §2, §3, §4
as §1, with “The minimum” for “A minimum”, “of silver based” for “of certain silver-based”, “μg/ml). […] After 24 h of incubation, 10 μl of the suspension from all of the clear wells (showing no bacterial growth) was dropped onto a MH agar plate and incubated for 24 h.” for “μg/ml).”

[1] = system: E. Coli J53pMG101 (silver resistant); assay type: cell-based, Escherichia coli; details: up to 1000 μg/ml
Method: as §1, §2
The mass concentration of these nanoparticles dispersed in water was 1.0 mg/mL The Silvadur ET solution containing 2.6-3.1 wt % silver ions was used at its original concentration (1.0 mg/mL). Silver nitrate was also dissolved in distilled water to create a 1 mg/mL solution. A gram negative (Escherichia coli J53) and gram positive (staphylococcus aureus—a common bacteria to cause skin infections) bacteria were employed for the experiment. Cation-adjusted Mueller-Hinton (MH) broth and agar (Difco Laboratories, Detroit, Mich., USA) were utilized to prepare bacterial cultivating medium. Isolated bacterial colonies were grown overnight in an incubator (37° C., 5% CO2) from frozen samples on an agar plate. […]

[2] = Table 1, Example 1, 24 h incubation

SMILES: O=[N+]([O-])[O-].[Ag+] [Silver nitrate]
- Minimum Inhibitory Concentrations (MIC) Escherichia coli J53 (Escherichia coli J53; [2]): 7.81 µg/mL
- Minimum Bacterial Concentrations (MBC) Escherichia coli J53 (Escherichia coli J53; Table 2, Example 1): 15.62 µg/mL
- Minimum Inhibitory Concentrations (MIC) Escherichia coli J53 (Escherichia coli J53; Table 9, Example 4): 7.81 µg/mL
- Minimum Bacterial Concentrations (MBC) Escherichia coli J53 (Escherichia coli J53; Table 10, Example 4): 15.62 µg/mL
- Minimum Inhibitory Concentrations (MIC) Staphylococcus aureus (Staphylococcus aureus; [2]): 15.62 µg/mL
- Minimum Bacterial Concentrations (MBC) Staphylococcus aureus (Staphylococcus aureus; Table 2, Example 1): 31.25 µg/mL
- Minimum Inhibitory Concentrations (MIC) Staphylococcus aureus (Staphylococcus aureus; Table 9, Example 4): 15.62 µg/mL
- Minimum Bacterial Concentrations (MBC) Staphylococcus aureus (Staphylococcus aureus; Table 10, Example 4): 31.25 µg/mL
- Observation of silver resistant E. coli J53 (pMG101) in the presence of the antimicrobial [1]: confirmed the resistance of E. coli J53 to silver; also recorded: confirmed its resistance to silver
